ChEMBL document CHEMBL5724914, “Linking interpersonal differences in gut microbiota composition and drug biotransformation activity” (2024)

Legend:
[1] = (§1) The drug is tested on WLS-073 corresponding to human gut metagenome with ENA study accession number: PRJEB37062 and ENA sample accession number: ERS12561749 for biotransformation under anaerobic condition. The drug concentrations were measured over 9 timepoints collected between 0 and 24 hours of incubation by liquid-chromatography-coupled mass spectrometry (LC–MS); details: 2 µM
[2] = human gut metagenome, 24 h, 2 µM
[3] = human gut metagenome, 24 h, 2 µM; remark: listed apart in the source
[4] = human gut metagenome, 24 h, 2 µM; remark: listed apart in the source
[5] = as §1, with “WLS-240” for “WLS-073”, “ERS12561773” for “ERS12561749”; details: 2 µM
[6] = as §1, with “Z-022” for “WLS-073”, “mouse” for “human”, “ERS12561821” for “ERS12561749”; details: 2 µM
[7] = as §1, with “WLS-010” for “WLS-073”, “ERS12561743” for “ERS12561749”; details: 2 µM
[8] = as §1, with “WLS-350” for “WLS-073”, “ERS12561789” for “ERS12561749”; details: 2 µM
[9] = as §1, with “Z-007” for “WLS-073”, “rat” for “human”, “ERS12561807” for “ERS12561749”; details: 2 µM
[10] = human gut metagenome, 24 h, 2 µM; remark: listed apart in the source
[11] = human gut metagenome, 24 h, 2 µM; remark: listed apart in the source
[12] = human gut metagenome, 24 h, 2 µM; remark: listed apart in the source
[13] = human gut metagenome, 24 h, 2 µM; remark: listed apart in the source
[14] = as §1, with “Z-028” for “WLS-073”, “mouse” for “human”, “ERS12561827” for “ERS12561749”; details: 2 µM
[15] = as §1, with “WLS-006” for “WLS-073”, “ERS12561741” for “ERS12561749”; details: 2 µM
[16] = human gut metagenome, 24 h, 2 µM; remark: listed apart in the source
[17] = human gut metagenome, 24 h, 2 µM; remark: listed apart in the source
[18] = human gut metagenome, 24 h, 2 µM; remark: listed apart in the source
[19] = human gut metagenome, 24 h, 2 µM; remark: listed apart in the source
[20] = as §1, with “WLS-170” for “WLS-073”, “ERS12561762” for “ERS12561749”; details: 2 µM
Further: call rule not given here.

Compound	Bacterial Biotransformation [1]	Bacterial Biotransformation [2]	Bacterial Biotransformation [3]	Bacterial Biotransformation [4]	Bacterial Biotransformation [5]	Bacterial Biotransformation [6]	Bacterial Biotransformation [7]	Bacterial Biotransformation [8]	Bacterial Biotransformation [9]	Bacterial Biotransformation [10]	Bacterial Biotransformation [11]	Bacterial Biotransformation [12]	Bacterial Biotransformation [13]	Bacterial Biotransformation [14]	Bacterial Biotransformation [15]	Bacterial Biotransformation [16]	Bacterial Biotransformation [17]	Bacterial Biotransformation [18]	Bacterial Biotransformation [19]	Bacterial Biotransformation [20]
CC(=O)CC(c1ccccc1)c1c(O)c2ccccc2oc1=O (stereo not given) [WARFARIN]	Compound NOT metabolized	Compound metabolized	Compound metabolized	Compound metabolized	Compound metabolized	Compound metabolized	Compound metabolized	Compound metabolized	Compound NOT metabolized	Compound metabolized	Compound metabolized	Compound metabolized	Compound metabolized	Compound metabolized	Compound metabolized	Compound metabolized	Compound metabolized	Compound metabolized	Compound metabolized	Compound metabolized
COc1ccc2c3c1O[C@H]1C[C@@H](O)C=C[C@@]31CCN(C)C2 [GALANTAMINE]	Compound NOT metabolized	Compound metabolized	Compound NOT metabolized	Compound NOT metabolized	Compound metabolized	Compound NOT metabolized	Compound metabolized	Compound metabolized	Compound NOT metabolized	Compound metabolized	Compound NOT metabolized	Compound NOT metabolized	Compound NOT metabolized	Compound NOT metabolized	Compound NOT metabolized	Compound NOT metabolized	Compound NOT metabolized	Compound NOT metabolized	Compound metabolized	Compound metabolized
Nc1c2c(nc3ccccc13)CCCC2 [TACRINE]	Compound NOT metabolized	Compound metabolized	Compound NOT metabolized	Compound NOT metabolized	Compound metabolized	Compound NOT metabolized	Compound NOT metabolized	Compound NOT metabolized	Compound NOT metabolized	Compound NOT metabolized	Compound NOT metabolized	Compound metabolized	Compound NOT metabolized	Compound NOT metabolized	Compound NOT metabolized	Compound NOT metabolized	Compound NOT metabolized	Compound NOT metabolized	Compound metabolized	Compound metabolized
O=P(O)(O)O.c1ccc(CN(CC2=NCCN2)c2ccccc2)cc1 [ANTAZOLINE PHOSPHATE]	Compound NOT metabolized	Compound NOT metabolized	Compound NOT metabolized	Compound NOT metabolized	Compound metabolized	Compound NOT metabolized	Compound NOT metabolized	Compound NOT metabolized	Compound NOT metabolized	Compound NOT metabolized	Compound NOT metabolized	Compound NOT metabolized	Compound NOT metabolized	Compound NOT metabolized	Compound metabolized	Compound NOT metabolized	Compound NOT metabolized	Compound NOT metabolized	Compound NOT metabolized	Compound metabolized
CCN(CC)CCNC(=O)c1cc(Cl)c(N)cc1OC [METOCLOPRAMIDE]	Compound NOT metabolized	Compound NOT metabolized	Compound NOT metabolized	Compound NOT metabolized	Compound metabolized	Compound NOT metabolized	Compound NOT metabolized	Compound NOT metabolized	Compound NOT metabolized	Compound NOT metabolized	Compound NOT metabolized	Compound NOT metabolized	Compound NOT metabolized	Compound NOT metabolized	Compound NOT metabolized	Compound NOT metabolized	Compound NOT metabolized	Compound NOT metabolized	Compound NOT metabolized	Compound NOT metabolized
Nc1nc2ccc(OC(F)(F)F)cc2s1 [RILUZOLE]	Compound metabolized	Compound metabolized	Compound metabolized	Compound NOT metabolized	Compound metabolized	Compound metabolized	Compound metabolized	Compound NOT metabolized	Compound NOT metabolized	Compound metabolized	Compound NOT metabolized	Compound metabolized	Compound metabolized	Compound NOT metabolized	Compound metabolized	Compound NOT metabolized	Compound metabolized	Compound NOT metabolized	Compound metabolized	Compound metabolized
CCCCC(=O)N(Cc1ccc(-c2ccccc2-c2nnn[nH]2)cc1)[C@H](C(=O)O)C(C)C	Compound NOT metabolized	Compound metabolized	Compound metabolized	Compound metabolized	Compound metabolized	Compound NOT metabolized	Compound metabolized	Compound metabolized	Compound NOT metabolized	Compound metabolized	Compound metabolized	Compound metabolized	Compound metabolized	Compound NOT metabolized	Compound metabolized	Compound metabolized	Compound metabolized	Compound metabolized	Compound metabolized	Compound metabolized
Cc1ccc(-c2nc3ccc(C)cn3c2CC(=O)N(C)C)cc1 [ZOLPIDEM]	Compound NOT metabolized	Compound metabolized	Compound metabolized	Compound NOT metabolized	Compound metabolized	Compound metabolized	Compound NOT metabolized	Compound NOT metabolized	Compound NOT metabolized	Compound metabolized	Compound NOT metabolized	Compound NOT metabolized	Compound NOT metabolized	Compound NOT metabolized	Compound NOT metabolized	Compound metabolized	Compound metabolized	Compound NOT metabolized	Compound metabolized	Compound NOT metabolized
Fc1ccc([C@@H]2CCNC[C@H]2COc2ccc3c(c2)OCO3)cc1 [PAROXETINE]	Compound NOT metabolized	Compound metabolized	Compound metabolized	Compound NOT metabolized	Compound metabolized	Compound metabolized	Compound metabolized	Compound metabolized	Compound NOT metabolized	Compound metabolized	Compound NOT metabolized	Compound NOT metabolized	Compound metabolized	Compound NOT metabolized	Compound NOT metabolized	Compound NOT metabolized	Compound metabolized	Compound metabolized	Compound metabolized	Compound metabolized
